For the first experiment, the system named is COS Cell. Description: COS Cell IC50 (Cell-Based Assay), procedure of WO 95/10516. The settings on record: one range stated for the listed examples. As for the experimental part:
FPT IC50 (inhibition of farnesyl protein transferase. in vitro enzyme assay) and COS Cell IC50 (Cell-Based Assay) were determined following the assay procedures described in WO 95/10516, published April 20. 1995. GGPT IC50 (inhibition of geranylgeranyl protein transferase, in vitro enzyme assay). Cell Mat Assay, and anti-tumor activity (in vivo anti-tumor studies) could be determined by the assay procedures described in WO 95/10516. The disclosure of WO 95/10516 is incorporated herein by reference thereto.
The IC50 is the midpoint of a concentration-inhibition curve. Low values mean inhibition by little substance, high ones a need for much substance. As to `O=C(CN1CC[S+]([O-])CC1)N1CCN(C2c3ccc(Cl)c(Br)c3CCc3cc(Br)cnc32)CC1` (single isomer, unassigned) [Example 39], the IC50 fell in the range of 1.8 to 143 nM.

Take `O=C(CC1CCOCC1)N1CCC([C@H]2c3ncc(Br)cc3CCc3cc(Cl)cc(Br)c32)CC1` [Example 1]: the IC50 fell in the range of 1.8 to 143 nM.

As for `O=C(C=C1CCOCC1)N1CCC([C@H]2c3ncc(Br)cc3CCc3cc(Cl)cc(Br)c32)CC1` [Example 2], the IC50 is 1.8 to 143 nM.

`O=C(CC1CCSCC1)N1CCC([C@H]2c3ncc(Br)cc3CCc3cc(Cl)cc(Br)c32)CC1` [Example 5] returned an IC50 of 1.8 to 143 nM.

Molecule `O=C(CC1CCCCO1)N1CCC([C@H]2c3ncc(Br)cc3CCc3cc(Cl)cc(Br)c32)CC1` (some centres unmarked) [Example 8] came in with an IC50 of 1.8 to 143 nM.

In turn, `O=C(CN1CCSCC1)N1CCC([C@H]2c3ncc(Br)cc3CCc3cc(Cl)cc(Br)c32)CC1` [Example 37] yielded an IC50 of 1.8 to 143 nM.

For the molecule `O=C(CC1CCOCC1)N1CCC(C2c3c(Br)cc(Cl)cc3CCc3cc(Br)c[n+]([O-])c32)CC1` (centres unmarked) [Example 40], the IC50 was 1.8 to 143 nM.

The test system of a further experiment is Human tumor cells. Description: Soft Agar Assay (anchorage-independent growth, colony count after MTT staining). The experiment is classed as cell-based. The settings on record: 0.3% agarose top layer over 0.6% agarose, 10-16 days at 37°C under 5% CO2. How it is done:
Anchorage-independent growth is a characteristic of tumorigenic cell lines. Human tumor cells can be suspended in growth medium containing 0.3% agarose and an indicated concentration of a farnesyl transferase inhibitor. The solution can be overlayed onto growth medium solidified with 0.6% agarose containing the same concentration of farnesyl transferase inhibitor as the top layer. After the top layer is solidified, plates can be incubated for 10-16 days at 37°C under 5% CO2 to allow colony outgrowth. After incubation, the colonies can be stained by overlaying the agar with a solution of MTT (3-[4,5-dimethylthiazol-2-yl]-2,5-diphenyltetrazolium bromide, Thiazolyl blue) (1 mg/mL in PBS). Colonies can be counted and the IC50's can be determined.
`O=C(CC1CCOCC1)N1CCC(C2c3c(Br)cc(Cl)cc3CCc3cc(Br)c[n+]([O-])c32)CC1` (centres unmarked) [Example 40] returned a concentration for half-maximal inhibition (IC50) of 8 nM.

These data come from patent publication EP1019398B1, “BENZO(5,6)CYCLOHEPTA(1,2-B)PYRIDINE DERIVATIVES USEFUL FOR INHIBITION OF FARNESYL PROTEIN TRANSFERASE” (SCHERING CORPORATION, priority 1997, dated 1998).
